The values that follow come from ChEMBL document CHEMBL1201862, “PubChem BioAssay data set” (2004).

Molecules are shown by their SMILES.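 Grown in 96-well plates, cells were treated for 48 hours with each compound at five concentrations. Insufficient inhibition: endpoint recorded as highest concentration tested. GI50: concentration for 50% inhibition of growth.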 Calls of active or inactive are those of the source. Cut-off read from the data, not from the text of the source: active = GI50 up to about 1.1 µM and inactive = higher. A value given as a limit tells only on which side of the number the result lay.

Some test systems named below: NCI/ADR-RES; OVCAR-5; SK-OV-3; DU-145; TK-10; SF-268; HCC 2998; KM12; OVCAR-3; HL-60; OVCAR-4; NCI-H460; HOP-62; HCT-15; MDA-MB-435; MDA-N; UACC-257; SF-539.
Common to all, as to test: NCI-60 cell line screen, 48 h

Regarding `Clc1ccc2nc3c(c(-c4ccccc4)nn3-c3ccccc3)c(-c3ccccc3)c2c1`, the GI50 with NCI/ADR-RES, with OVCAR-5, with SK-OV-3, in the experiment on DU-145, in the experiment on TK-10 and with SF-268 was > 100 µM (inactive) throughout. Moreover, the GI50 in the experiment on HCC 2998, in the experiment on KM12, in the experiment with OVCAR-3, in the experiment with HL-60, in the experiment on OVCAR-4 and with NCI-H460 was > 100 µM (inactive) each time. Further, the GI50 with HOP-62 was > 100 µM (inactive); in the experiment with HCT-15, above 100 µM; in the experiment on MDA-MB-435 it was > 100 µM (inactive); in the experiment with MDA-N it was > 100 µM (inactive).
Take `CC1(C)CC(=O)C2=C(C1)NC(SCC(=O)O)=C(C#N)C2c1ccc(Br)cc1` (centres undefined): the GI50 in the experiment on NCI/ADR-RES, in the experiment on OVCAR-5, in the experiment with SK-OV-3, in the experiment on DU-145, in the experiment on TK-10 and in the experiment with SF-268 was > 100 µM (inactive) each time. Further, the GI50 with HCC 2998, with KM12, with OVCAR-3, with HL-60, with OVCAR-4 and in the experiment on NCI-H460 was > 100 µM (inactive) each time. The GI50 was > 100 µM (inactive) in the experiment on HOP-62; above 100 µM in the experiment on HCT-15; > 100 µM (inactive) with UACC-257; > 100 µM (inactive) with MDA-MB-435; > 100 µM (inactive) in the experiment with MDA-N.
For `COc1ccc2c(c1)C(=O)CC(N)C2` (centres undefined), the GI50 in the experiment on NCI/ADR-RES, in the experiment with OVCAR-5, with SK-OV-3, in the experiment on DU-145, in the experiment on TK-10 and with SF-268 was > 100 µM (inactive) in each case. Moreover, the GI50 in the experiment on HCC 2998 was 47.6 µM (inactive); in the experiment with KM12, > 100 µM (inactive); in the experiment with OVCAR-3 it was 88.5 µM (inactive); in the experiment on HL-60, 62.7 µM (inactive); with OVCAR-4, > 100 µM (inactive); in the experiment on NCI-H460, > 100 µM (inactive). Besides, the GI50 with HOP-62 was > 100 µM (inactive); in the experiment on HCT-15, above 100 µM; with UACC-257 it was > 100 µM (inactive); with MDA-MB-435, > 100 µM (inactive); in the experiment with MDA-N it was > 100 µM (inactive).
Consider `CC(C)(C)C1CC[C@H](O)[C@H]([C@@H](O)CC2CC(=O)N(c3ccccc3)C(=O)C2)C1` (some centres undefined), for which the GI50 with NCI/ADR-RES was 67.9 µM (inactive); in the experiment with OVCAR-5, > 100 µM (inactive); in the experiment on DU-145 it was 55.3 µM (inactive); in the experiment on TK-10 it was > 100 µM (inactive); with SF-268, > 100 µM (inactive); with HCC 2998, 27.9 µM (inactive). Besides, the GI50 in the experiment with KM12 was 47.5 µM (inactive); with OVCAR-3, 50.9 µM (inactive); with HL-60, 28.1 µM (inactive); in the experiment on OVCAR-4 it was 57.5 µM (inactive); with NCI-H460, 44.2 µM (inactive); in the experiment on SF-539, > 100 µM (inactive). Moreover, the GI50 is > 100 µM (inactive) with HOP-62; 56.4 µM in the experiment on HCT-15; 89.9 µM (inactive) in the experiment with UACC-257; 55.2 µM (inactive) in the experiment on MDA-MB-435; > 100 µM (inactive) in the experiment on MDA-N.
With `Cc1nc2cccc([N+](=O)[O-])c2n1CCCN(C)C`, the GI50 in the experiment with NCI/ADR-RES, with OVCAR-5, in the experiment with SK-OV-3, with DU-145, in the experiment with TK-10 and in the experiment with SF-268 was > 100 µM (inactive) each time. For the same molecule, the GI50 in the experiment with HCC 2998, in the experiment on KM12, in the experiment with OVCAR-3, in the experiment with HL-60, in the experiment on OVCAR-4 and in the experiment with NCI-H460 was > 100 µM (inactive) throughout. Besides, the GI50 is > 100 µM (inactive) with HOP-62; above 100 µM with HCT-15; > 100 µM (inactive) with UACC-257; > 100 µM (inactive) in the experiment on MDA-MB-435; > 100 µM (inactive) in the experiment on MDA-N.
